Reference: publication PMC7316778 (Nature Communications, 2020)
pIC50: −log10 of the molar value. Values joined by “and” are separate entries in the source; they are usually repeats but may differ in a detail not shown here. Equal values may be shown once. Read-outs that look alike come from different tables or passages of the source.

Key:
RPS6KA4 (MSK2) = RPS6KA4 (MSK2) (Homo sapiens, UniProt O75676); experiment: SelectScreen kinase assay
Procedure: (§1) Selectivity profiling assays were performed by the Invitrogen SelectScreen™ Services. […] The concentration of ATP was selected to be equal to the KM, unless indicated otherwise.

BMX = target: T1, BMX (Homo sapiens, UniProt P51813); experiment: SelectScreen kinase assay
T1 sequence (P51813 1-675): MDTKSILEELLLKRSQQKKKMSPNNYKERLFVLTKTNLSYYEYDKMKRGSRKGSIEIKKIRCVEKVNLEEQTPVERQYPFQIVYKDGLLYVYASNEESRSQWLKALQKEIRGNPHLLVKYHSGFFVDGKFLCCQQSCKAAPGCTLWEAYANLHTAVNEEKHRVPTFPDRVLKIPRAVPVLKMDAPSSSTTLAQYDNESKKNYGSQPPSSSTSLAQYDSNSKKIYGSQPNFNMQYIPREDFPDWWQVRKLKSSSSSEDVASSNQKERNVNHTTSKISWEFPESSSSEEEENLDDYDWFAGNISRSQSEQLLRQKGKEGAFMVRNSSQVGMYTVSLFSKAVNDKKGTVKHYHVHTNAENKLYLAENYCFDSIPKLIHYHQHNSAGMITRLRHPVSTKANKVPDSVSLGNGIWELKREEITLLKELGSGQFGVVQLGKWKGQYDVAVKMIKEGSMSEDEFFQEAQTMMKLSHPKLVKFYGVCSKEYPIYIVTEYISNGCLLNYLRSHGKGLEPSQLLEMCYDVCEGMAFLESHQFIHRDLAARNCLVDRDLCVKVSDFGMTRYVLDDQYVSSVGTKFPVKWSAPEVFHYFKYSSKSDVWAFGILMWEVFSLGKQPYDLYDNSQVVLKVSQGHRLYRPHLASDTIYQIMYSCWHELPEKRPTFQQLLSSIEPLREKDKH
Procedure: as §1

MINK1 = MINK1 (Homo sapiens, UniProt Q8N4C8); experiment: SelectScreen kinase assay
MINK1, sequence (Q8N4C8 whole entry): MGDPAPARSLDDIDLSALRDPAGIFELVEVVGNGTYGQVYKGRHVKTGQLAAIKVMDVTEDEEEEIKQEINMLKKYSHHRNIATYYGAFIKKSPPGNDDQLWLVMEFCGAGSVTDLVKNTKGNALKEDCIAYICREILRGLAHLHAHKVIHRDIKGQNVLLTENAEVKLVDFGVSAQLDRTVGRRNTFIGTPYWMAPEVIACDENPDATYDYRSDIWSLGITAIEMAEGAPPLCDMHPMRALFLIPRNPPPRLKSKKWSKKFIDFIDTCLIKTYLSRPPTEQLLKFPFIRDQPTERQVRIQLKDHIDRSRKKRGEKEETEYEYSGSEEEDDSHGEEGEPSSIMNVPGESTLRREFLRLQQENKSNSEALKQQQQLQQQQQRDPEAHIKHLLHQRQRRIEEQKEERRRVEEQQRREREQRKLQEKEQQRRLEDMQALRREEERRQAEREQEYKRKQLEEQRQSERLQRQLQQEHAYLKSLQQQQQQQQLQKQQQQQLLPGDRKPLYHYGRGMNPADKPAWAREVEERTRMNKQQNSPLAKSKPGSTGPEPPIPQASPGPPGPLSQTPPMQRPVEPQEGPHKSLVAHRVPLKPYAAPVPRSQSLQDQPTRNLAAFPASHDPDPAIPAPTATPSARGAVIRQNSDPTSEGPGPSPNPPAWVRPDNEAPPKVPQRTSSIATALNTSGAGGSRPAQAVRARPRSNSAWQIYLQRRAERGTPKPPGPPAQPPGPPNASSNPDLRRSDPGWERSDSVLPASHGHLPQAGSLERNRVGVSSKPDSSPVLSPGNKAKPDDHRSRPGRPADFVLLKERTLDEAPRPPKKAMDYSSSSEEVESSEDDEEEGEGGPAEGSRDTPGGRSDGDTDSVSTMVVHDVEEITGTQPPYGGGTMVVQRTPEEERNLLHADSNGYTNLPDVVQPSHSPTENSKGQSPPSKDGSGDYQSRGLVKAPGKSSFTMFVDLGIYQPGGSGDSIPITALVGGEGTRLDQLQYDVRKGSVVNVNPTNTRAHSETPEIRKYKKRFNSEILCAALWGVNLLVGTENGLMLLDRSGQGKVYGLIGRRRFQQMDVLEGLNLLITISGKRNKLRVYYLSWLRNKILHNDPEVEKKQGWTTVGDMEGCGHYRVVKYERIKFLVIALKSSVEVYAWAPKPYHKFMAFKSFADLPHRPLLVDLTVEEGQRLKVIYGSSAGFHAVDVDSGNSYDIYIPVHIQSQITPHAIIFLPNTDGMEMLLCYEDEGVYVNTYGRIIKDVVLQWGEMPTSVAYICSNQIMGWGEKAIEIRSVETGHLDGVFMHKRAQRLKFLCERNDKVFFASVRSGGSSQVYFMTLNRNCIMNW
Procedure: as §1

GSK3B (GSK3 beta) = GSK3B (GSK3 beta) (Homo sapiens, UniProt P49841); experiment: SelectScreen kinase assay
Procedure: as §1

EIF2AK2 (PKR) = EIF2AK2 (PKR) (Homo sapiens, UniProt P19525); experiment: SelectScreen kinase assay
EIF2AK2 (PKR), sequence (P19525 whole entry): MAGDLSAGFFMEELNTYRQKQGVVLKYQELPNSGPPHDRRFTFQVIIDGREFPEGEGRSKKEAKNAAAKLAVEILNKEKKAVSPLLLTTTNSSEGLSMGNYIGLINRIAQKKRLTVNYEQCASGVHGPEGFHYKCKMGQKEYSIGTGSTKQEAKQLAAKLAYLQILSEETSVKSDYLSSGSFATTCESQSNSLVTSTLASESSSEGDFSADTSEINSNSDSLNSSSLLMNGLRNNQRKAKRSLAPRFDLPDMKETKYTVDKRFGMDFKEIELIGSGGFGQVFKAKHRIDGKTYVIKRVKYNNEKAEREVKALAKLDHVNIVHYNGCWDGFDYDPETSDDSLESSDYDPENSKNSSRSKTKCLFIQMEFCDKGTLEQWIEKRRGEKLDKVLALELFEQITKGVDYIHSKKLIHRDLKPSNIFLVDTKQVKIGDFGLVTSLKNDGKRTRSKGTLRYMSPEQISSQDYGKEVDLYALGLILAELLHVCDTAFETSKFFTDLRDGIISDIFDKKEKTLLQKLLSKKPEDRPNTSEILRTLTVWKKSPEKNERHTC
Procedure: as §1

PTK2 (FAK) = PTK2 (FAK) (Homo sapiens, UniProt Q05397); experiment: SelectScreen kinase assay
Procedure: as §1

FES^S700C HL-60 cells = experiment: Morphological inspection after PMA-induced differentiation; assay type: cell-based, human
Procedure: One day prior to induction of differentiation, cells were diluted to 0.4 × 10^6 cells/mL. […] Neutrophil differentiation was induced by addition of all-trans-retinoic acid (1 µM) and dimethylsulfoxide (1.25%) for 72–96 h. For morphological inspection, images were taken on an EVOS FL Auto 2 Imaging System (Thermo Fisher) at ×20 magnification.
Supplementary Figure 10. Analysis of putative sgRNA off-target site. Analysis of the only predicted coding off-target of the sgRNA target sequence employed for FESS700C mutagenesis, located in the TTC16 gene. Genomic region surrounding putative off-target site was amplified by PCR, followed by Sanger sequencing analysis. No off-target gene editing events were observed.
Supplementary Figure 11. Morphological inspection of WT and FESS700C HL-60 cells after PMA-induced differentiation towards macrophages. Cells were treated with vehicle or indicated concentrations of WEL028 during PMA-induced differentiation toward macrophages. Wild-type and […]
are representative for multiple acquired images at 20x magnification from replicates (n = 3).
(also on this page, place not known: off -target off -target FES S700C PMA -induced W ild-type PAM Predicted TTC16 (NM_144965) HL-60 WT HL-60 125 μm Non-differentiated PMA (16 nM, 48 h) HL-60 WTHL-60 FESS700C Vehicle Vehicle WEL028 (100 nM) WEL028 (1 µM))

CDC7/DBF4 = CDC7/DBF4 (Homo sapiens, UniProt O00311); experiment: SelectScreen kinase assay
CDC7/DBF4, sequence (O00311 whole entry): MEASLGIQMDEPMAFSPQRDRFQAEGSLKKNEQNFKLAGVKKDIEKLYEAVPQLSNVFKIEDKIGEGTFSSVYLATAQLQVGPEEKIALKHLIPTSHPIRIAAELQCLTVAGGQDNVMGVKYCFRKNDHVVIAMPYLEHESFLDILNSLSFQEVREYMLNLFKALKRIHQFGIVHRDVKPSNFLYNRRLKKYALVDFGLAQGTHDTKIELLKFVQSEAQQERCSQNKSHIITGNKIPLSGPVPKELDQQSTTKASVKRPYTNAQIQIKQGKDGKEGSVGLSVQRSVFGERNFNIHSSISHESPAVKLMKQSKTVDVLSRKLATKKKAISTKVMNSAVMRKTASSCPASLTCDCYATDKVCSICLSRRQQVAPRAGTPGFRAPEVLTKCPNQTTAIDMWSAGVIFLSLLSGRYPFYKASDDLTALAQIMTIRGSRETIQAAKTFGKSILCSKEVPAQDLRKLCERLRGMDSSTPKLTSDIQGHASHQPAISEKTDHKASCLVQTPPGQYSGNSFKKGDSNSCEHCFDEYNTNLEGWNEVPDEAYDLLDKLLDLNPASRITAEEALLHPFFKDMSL
CDC7/DBF4, sequence (Q9UBU7 whole entry partner): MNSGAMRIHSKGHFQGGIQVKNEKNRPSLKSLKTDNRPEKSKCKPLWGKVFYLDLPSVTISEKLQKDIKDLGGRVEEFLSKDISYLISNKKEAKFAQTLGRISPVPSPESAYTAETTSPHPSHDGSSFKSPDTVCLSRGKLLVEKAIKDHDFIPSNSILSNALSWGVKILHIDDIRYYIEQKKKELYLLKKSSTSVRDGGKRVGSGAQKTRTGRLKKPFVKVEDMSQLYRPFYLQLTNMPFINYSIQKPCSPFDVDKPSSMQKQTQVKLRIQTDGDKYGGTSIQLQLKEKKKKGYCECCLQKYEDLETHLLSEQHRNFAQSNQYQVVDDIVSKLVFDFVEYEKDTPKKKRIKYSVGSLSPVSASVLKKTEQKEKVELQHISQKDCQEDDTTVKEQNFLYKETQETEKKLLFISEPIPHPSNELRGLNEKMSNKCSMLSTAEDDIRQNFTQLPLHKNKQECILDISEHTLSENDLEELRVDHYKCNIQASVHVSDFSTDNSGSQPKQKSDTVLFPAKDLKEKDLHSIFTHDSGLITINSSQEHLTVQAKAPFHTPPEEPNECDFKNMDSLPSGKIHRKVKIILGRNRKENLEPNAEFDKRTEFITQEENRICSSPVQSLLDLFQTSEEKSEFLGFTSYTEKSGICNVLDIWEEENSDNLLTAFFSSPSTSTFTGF
Procedure: as §1

PLK1 = PLK1 (Homo sapiens, UniProt P53350); experiment: SelectScreen kinase assay
PLK1, sequence (P53350 whole entry): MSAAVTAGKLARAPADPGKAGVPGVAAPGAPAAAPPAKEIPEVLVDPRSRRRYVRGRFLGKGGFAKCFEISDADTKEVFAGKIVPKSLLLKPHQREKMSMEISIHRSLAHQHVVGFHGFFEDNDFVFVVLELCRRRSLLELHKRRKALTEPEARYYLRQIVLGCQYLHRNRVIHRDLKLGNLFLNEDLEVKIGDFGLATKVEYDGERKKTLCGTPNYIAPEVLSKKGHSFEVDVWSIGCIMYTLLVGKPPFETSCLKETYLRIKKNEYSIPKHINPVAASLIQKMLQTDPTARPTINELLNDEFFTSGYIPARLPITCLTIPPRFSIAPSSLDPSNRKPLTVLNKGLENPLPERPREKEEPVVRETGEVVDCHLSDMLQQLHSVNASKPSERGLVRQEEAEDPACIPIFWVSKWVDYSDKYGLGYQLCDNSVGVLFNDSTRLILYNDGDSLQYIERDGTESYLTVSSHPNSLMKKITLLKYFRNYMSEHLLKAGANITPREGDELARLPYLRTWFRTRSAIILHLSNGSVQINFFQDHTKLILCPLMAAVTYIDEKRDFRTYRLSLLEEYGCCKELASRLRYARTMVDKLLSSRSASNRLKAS
Procedure: as §1

[1] = target: T2, endogenous FES^S700C in HL-60 cells (Homo sapiens, UniProt P07332, S700C); experiment: Gel-based target engagement during neutrophil differentiation; assay type: cell-based; conditions: 100 nM; Supplementary Figure 12b; individual replicates; listed as WEL028
T2 construct: endogenous in cells; host or cells: HL-60 FES^S700C clone, differentiated to macrophages or neutrophils

CSNK2A2 (CK2 alpha 2) = CSNK2A2 (CK2 alpha 2) (Homo sapiens, UniProt P19784); experiment: SelectScreen kinase assay
CSNK2A2 (CK2 alpha 2), sequence (P19784 whole entry): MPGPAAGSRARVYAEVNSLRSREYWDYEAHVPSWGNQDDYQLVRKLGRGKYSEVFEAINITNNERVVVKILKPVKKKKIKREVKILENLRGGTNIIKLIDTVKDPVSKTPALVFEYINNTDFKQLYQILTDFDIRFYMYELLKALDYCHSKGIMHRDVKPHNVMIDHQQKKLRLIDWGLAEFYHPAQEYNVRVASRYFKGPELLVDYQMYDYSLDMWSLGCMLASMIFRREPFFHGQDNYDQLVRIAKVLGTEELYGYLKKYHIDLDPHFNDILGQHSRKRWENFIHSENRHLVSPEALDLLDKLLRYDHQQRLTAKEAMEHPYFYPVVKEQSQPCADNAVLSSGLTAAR
Procedure: as §1

[2] = 1 µM, ZLYTE, ATP Km app, listed as WEL028, 1 µM
[3] = 1 h, 1 μM WEL028, 1 h preincubation

RPS6KA4 (MSK2), sequence (O75676 whole entry): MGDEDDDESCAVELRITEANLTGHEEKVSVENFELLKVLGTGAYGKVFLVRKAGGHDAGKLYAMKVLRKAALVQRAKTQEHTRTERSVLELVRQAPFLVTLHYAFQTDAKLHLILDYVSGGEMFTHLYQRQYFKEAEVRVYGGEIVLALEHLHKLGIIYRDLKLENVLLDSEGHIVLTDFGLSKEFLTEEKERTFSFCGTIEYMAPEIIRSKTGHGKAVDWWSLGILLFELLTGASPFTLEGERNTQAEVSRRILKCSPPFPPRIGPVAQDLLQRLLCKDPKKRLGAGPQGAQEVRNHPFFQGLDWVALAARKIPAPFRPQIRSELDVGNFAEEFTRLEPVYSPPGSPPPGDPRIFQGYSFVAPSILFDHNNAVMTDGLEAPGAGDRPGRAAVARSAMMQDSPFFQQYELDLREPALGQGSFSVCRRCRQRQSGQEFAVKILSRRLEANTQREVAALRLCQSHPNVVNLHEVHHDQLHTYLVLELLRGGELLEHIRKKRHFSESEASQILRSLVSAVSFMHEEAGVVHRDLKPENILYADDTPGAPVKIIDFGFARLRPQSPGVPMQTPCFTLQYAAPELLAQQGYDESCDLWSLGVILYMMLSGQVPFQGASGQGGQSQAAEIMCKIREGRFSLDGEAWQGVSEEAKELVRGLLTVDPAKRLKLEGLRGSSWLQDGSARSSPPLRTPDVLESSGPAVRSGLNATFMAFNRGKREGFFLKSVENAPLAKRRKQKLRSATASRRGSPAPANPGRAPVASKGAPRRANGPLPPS

For `C#CCOc1ccc(Nc2ncc(Cl)c(Nc3ccccc3NC(=O)C=C)n2)c(OC)c1` [Compound 6], the “Inhibition at 1 µM (%)” value (RPS6KA4 (MSK2); [2]) was -4% and 6%, the inhibition at 1 µM (RPS6KA4 (MSK2); [3]) was 1% and the inhibition at 1 µM (BMX; [3]) was 16%. The “Inhibition at 1 µM (%)” value (BMX; BMX, 1 µM, ZLYTE, ATP Km app, listed as WEL028, 1 µM) was 18%, the inhibition at 1 µM (BMX; read-out: Inhibition at 1 µM (%), BMX, 1 µM, ZLYTE, ATP Km app) was 14% and the inhibition at 1 µM (MINK1; [3]) was 20%. For the same molecule, the “Inhibition at 1 µM (%)” value (MINK1; MINK1, 1 µM, ZLYTE, ATP Km app, listed as WEL028, 1 µM) was 21%, the inhibition at 1 µM (MINK1; read-out: Inhibition at 1 µM (%), MINK1, 1 µM, ZLYTE, ATP Km app) was 19% and the inhibition at 1 µM (GSK3B (GSK3 beta); [3]) was 4%. The inhibition at 1 µM (GSK3B (GSK3 beta); read-out: Inhibition at 1 µM (%), GSK3B (GSK3 beta), 1 µM, ZLYTE, ATP Km app) was 5%, the “Inhibition (%)” value (EIF2AK2 (PKR); 1 μM WEL028, 1 h preincubation) was 4% and the “Inhibition at 1 µM (%)” value (EIF2AK2 (PKR); EIF2AK2 (PKR), 1 µM, LanthaScreen Binding, listed as WEL028, 1 µM) was 6% and 1%. The pIC50 (PTK2 (FAK)) was 6.40, the “Inhibition at 1 µM (%)” value (PTK2 (FAK); [2]) was 79% and the inhibition at 10 µM (PTK2 (FAK); 1 h, log[inhibitor] (M) -5.00, ZLYTE, ATP Km app) was 90%. The inhibition at 3.31 µM (PTK2 (FAK); 1 h, log[inhibitor] (M) -5.48, ZLYTE, ATP Km app) was 88%, the inhibition at 1.12 µM (PTK2 (FAK); 1 h, log[inhibitor] (M) -5.95, ZLYTE, ATP Km app) was 78% and the inhibition at 0.372 µM (PTK2 (FAK); 1 h, log[inhibitor] (M) -6.43, ZLYTE, ATP Km app) was 46%. It also gave an inhibition at 0.123 µM (PTK2 (FAK); 1 h, log[inhibitor] (M) -6.91, ZLYTE, ATP Km app) of 26%, an inhibition at 0.0138 µM (PTK2 (FAK); 1 h, log[inhibitor] (M) -7.86, ZLYTE, ATP Km app) of 4% and an inhibition at 0.00151 µM (PTK2 (FAK); 1 h, log[inhibitor] (M) -8.82, ZLYTE, ATP Km app) of 4%. For the same molecule, the Apparent fold selectivity (PTK2 (FAK); IC50 on that kinase divided by IC50 on FES^S700C) was 89 fold, the inhibition at 1 µM (PTK2 (FAK); read-out: Inhibition at 1 µM (%), 1 µM, ZLYTE, ATP Km app) was 77% and the Morphology (FES^S700C HL-60 cells; 100 nM WEL028) was “macrophage morphology”. For the same molecule, the Morphology (FES^S700C HL-60 cells; 1 µM WEL028) was “morphology is similar to non-differentiated cells”, the inhibition at 1 µM (CDC7/DBF4; [3]) was 3% and the “Inhibition at 1 µM (%)” value (CDC7/DBF4; CDC7/DBF4, 1 µM, LanthaScreen Binding, listed as WEL028, 1 µM) was 6% and 1%. The inhibition at 1 µM (PLK1; [3]) was 12%, the “Inhibition at 1 µM (%)” value (PLK1; PLK1, 1 µM, ZLYTE, ATP Km app, listed as WEL028, 1 µM) was 8% and the inhibition at 1 µM (PLK1; read-out: Inhibition at 1 µM (%), PLK1, 1 µM, ZLYTE, ATP Km app) was 15%. The “Relative FES labeling (%)” value [1] was 10.1064% and 13.5252% and 6.003%, the inhibition at 1 µM (CSNK2A2 (CK2 alpha 2); 1 h) was 6% and the inhibition at 1 µM (CSNK2A2 (CK2 alpha 2); read-out: Inhibition at 1 µM (%)) was 6%.
